Results from US20250163055A1, “POLYMORPH OF JAK TYROSINE KINASE INHIBITOR AND PREPARATION METHOD THEREFOR” (Prime Gene Therapeutics Co., Ltd., priority 2022, published 2025).
≈ marks a conversion by molar mass, not a printed value. Read-outs that look alike come from different tables or passages of the source.

Assays:
[1] = Solubility of crystal forms in 20% propylene glycol at 32° C. over time; format: physicochemical; conditions: aqueous with cosolvent or surfactant or cyclodextrin, thermodynamic from solid
Excerpt: (§1) Solubility Investigation of Different Crystal Forms

[2] = Solubility measurement at different pH (37° C., 24 h); format: physicochemical; conditions: for solubility at 24 h: 37 °C, thermodynamic from solid, read-out: solubility, concentration
Excerpt: as §1

[3] = Long-term (24-months) stability of crystal forms; format: physicochemical; conditions: for stability of the crystal form (result in words): long-term stability investigation, summary; for Appearance / Content / Loss on Drying / Related Substances, Most Unknown Impurity / Related Substances, Total Impurities: long-term stability
Excerpt: The crystals prepared in examples 1, 3 and 6 were selected, and the stability of the crystal forms 1, IIa and IIb was investigated in accordance with the stability research guidelines issued by the National Medical Product Administration. The crystals were packed in pharmaceutical low-density polyethylene bags, and 24 months long-term stability was investigated.

[4] = Transdermal test of gel preparations (transdermal rate); format: in vitro ADME; conditions: gel preparation; receiving medium 5.0% Tween 80, pH 5.5 phosphate
Excerpt: Take the crystal obtained in Examples 1 or 6 and prepare it into gel preparation (the process for preparing the gel preparation can be: after stirring PEG400, propylene glycol, glycerin, ethanol and the crystal of Example 1 or 6, mix with EDTA aqueous solution, add in the swelled carbomer aqueous solution, adjust pH to be 6 with 10% triethanolamine solution, to obtain the gel). Measure respective transdermal rate (receiving medium 5.0% Tween 80, pH 5.5 phosphate).

[5] = Pharmacokinetic experiment in male SD rats (oral, intravenous, transdermal); format: in vivo, rat; conditions: for AUC(0-inf): read-out: AUC0-inf
Procedure: The solid powders of Examples 1 and 6, and the hydrogel preparations thereof were taken, and the PK values of rats administered by oral gavage and transdermal application were respectively determined. Male SD rats were divided into groups, 3 rats in each group, and were administered the compounds obtained in Examples 1 and 6 by oral gavage (oral group). administered Example 1 intravenously (intravenous group), and administered the gel preparations prepared from the compounds of Examples 1 and 6 topically to the skin (transdermal group). Animals were fasted overnight before the experiment, and the fasting time ranged from 10 hours before administration to 4 hours after administration. Blood was collected at 0.25, 0.5, 1, 2, 4, 6, 8 and 24 hours after administration in oral group and transdermal group, and at 0.083, 0.25, 0.5, 1, 2, 4, 6, 8 and 24 hours after administration in intravenous group. After being anesthetized with isoflurane using a small animal anesthesia machine, 0.3 mL of whole blood was collected through the fundus venous plexus and placed in a heparin anticoagulant tube. The blood samples were centrifuged at 4° C. and 4000 rpm for 5 min, and plasma was transferred to a centrifuge tube and placed at −80° C. until analysis. Plasma was extracted by protein precipitation method, and the extract was analyzed by LC/MS/MS. The transdermal group was administered for 24 hours and the skin at the administration site was peeled off after washing off the epidermal drug, and the drug content in the skin was analyzed by LC/MS/MS after homogenization.

[6] = male, SD, rat, plasma, iv, intravenous group
[7] = male, SD, rat, plasma, po, oral group (gavage)

Work on `CC(C)S(=O)(=O)N1CC(CC#N)(n2cc(-c3ncnc4[nH]ccc34)c(N)n2)C1` [Example 1, 2-{3-[3-amino-4-(7H-pyrrolo[2,3-d]pyrimidin-4-yl)-1H-pyrazol-1-yl]-1-(isopropylsulfonyl)azetidin-3-yl}acetonitrile crystal form I] yielded a solubility at 18 h [1] of 20.2 µg/mL (≈ 50.4 µM), a solubility at 24 h ([2]; pH 6.8, aqueous buffer, pH 6.8, 37° C.) of 1.2 µg/mL (≈ 3 µM) and a solubility at 24 h ([2]; pH 7, aqueous buffer, pH 7.0, 37° C.) of 1.3 µg/mL (≈ 3.25 µM). The solubility at 24 h ([2]; pH 8, aqueous buffer, pH 8.0, 37° C.) was 1.2 µg/mL (≈ 3 µM), the “solubility compared with crystal form IIb (result in words)” value ([2]; summary) was “higher solubility and oral bioavailability than crystal form IIb” and the “stability of the crystal form (result in words)” value ([3]; listed as Crystal form I) was “good stability”. For the same compound, the “stability of the crystal form (result in words)” value ([3]; listed as crystal form I) was “better chemical stability”, the Appearance ([3]; 0 month) was “Off-white powder” and the Content ([3]; 0 month) was 99.9%. For the same compound, the “Loss on Drying” value ([3]; 0 month) was 0.08%, the “Related Substances, Most Unknown Impurity” value ([3]; 0 month) was 0.17% and the “Related Substances, Total Impurities” value ([3]; 0 month) was 0.58%. The Appearance ([3]; 3 months) was “Off-white powder”, the Content ([3]; 3 months) was 100.1% and the “Loss on Drying” value ([3]; 3 months) was 0.06%. The “Related Substances, Most Unknown Impurity” value ([3]; 3 months) was 0.16%, the “Related Substances, Total Impurities” value ([3]; 3 months) was 0.57% and the Appearance ([3]; 6 months) was “Off-white powder”. For the same compound, the Content ([3]; 6 months) was 100.0%, the “Loss on Drying” value ([3]; 6 months) was 0.08% and the “Related Substances, Most Unknown Impurity” value ([3]; 6 months) was 0.17%. The “Related Substances, Total Impurities” value ([3]; 6 months) was 0.57%, the Appearance ([3]; 9 months) was “Off-white powder” and the Content ([3]; 9 months) was 99.8%. For the same compound, the “Loss on Drying” value ([3]; 9 months) was 0.11%, the “Related Substances, Most Unknown Impurity” value ([3]; 9 months) was 0.17% and the “Related Substances, Total Impurities” value ([3]; 9 months) was 0.57%. For the same compound, the Appearance ([3]; 12 months) was “Off-white powder”, the Content ([3]; 12 months) was 99.9% and the “Loss on Drying” value ([3]; 12 months) was 0.09%. For the same compound, the “Related Substances, Most Unknown Impurity” value ([3]; 12 months) was 0.17%, the “Related Substances, Total Impurities” value ([3]; 12 months) was 0.55% and the Appearance ([3]; 18 months) was “Off-white powder”. The Content ([3]; 18 months) was 99.7%, the “Loss on Drying” value ([3]; 18 months) was 0.12% and the “Related Substances, Most Unknown Impurity” value ([3]; 18 months) was 0.18%. For the same compound, the “Related Substances, Total Impurities” value ([3]; 18 months) was 0.62%, the Appearance ([3]; 24 months) was “Off-white powder” and the Content ([3]; 24 months) was 99.8%. For the same compound, the “Loss on Drying” value ([3]; 24 months) was 0.10%, the “Related Substances, Most Unknown Impurity” value ([3]; 24 months) was 0.16% and the “Related Substances, Total Impurities” value ([3]; 24 months) was 0.59%. For the same compound, the “transdermal performance / transdermal absorption (result in words)” value [4] was “better transdermal performance”, the half-life [5, 6] was 2.49 h and the AUC(0-inf) [5, 6] was 496 ng·h/mL. For the same compound, the half-life [5, 7] was 5.33 h, the AUC(0-inf) [5, 7] was 941 ng·h/mL and the Cmax ([5]; male, SD, rat, plasma, po, oral group (gavage), read-out: Cmax) was 111 ng/mL. It also gave a Tmax ([5]; male, SD, rat, plasma, po, oral group (gavage), read-out: Tmax) of 2.67 h, an F ([5]; oral group (gavage)) of 37% and a clearance ([5]; rat, plasma, intravenous group) of 69.2 mL/min/kg. For the same compound, the Vd ([5]; rat, plasma, intravenous group, read-out: Vss) was 4.93 L/kg.
